From patent US20240246946A1, “MODULATORS OF TREX1” (Constellation Pharmaceuticals, Inc., priority 2021, published 2024)

Columns and labels:
full length human TREX1 = molecular target: T1, full length human TREX1 (Homo sapiens, UniProt Q9NSU2); assay: hTREX1 Biochemical Assay (fluorescence, dsDNA substrate degradation); settings: biochemical, read-out: hTREX1 IC50
T1 construct: N-terminally His-Tev tagged full length human TREX1; made in house; host or cells: E. coli
T1 sequence (Q9NSU2 1-314): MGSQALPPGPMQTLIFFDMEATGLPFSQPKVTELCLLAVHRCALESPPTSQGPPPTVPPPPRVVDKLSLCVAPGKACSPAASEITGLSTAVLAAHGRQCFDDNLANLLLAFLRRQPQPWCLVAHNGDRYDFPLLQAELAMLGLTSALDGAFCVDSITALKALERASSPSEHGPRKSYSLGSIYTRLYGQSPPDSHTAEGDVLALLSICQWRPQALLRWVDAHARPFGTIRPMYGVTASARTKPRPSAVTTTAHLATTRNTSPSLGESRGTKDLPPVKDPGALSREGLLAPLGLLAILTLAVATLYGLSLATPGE
How it was run: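 Fluorescence rises as enzyme degrades a quenched TEX615-labelled dsDNA substrate (60 nM) in 50 mM Tris, 150 mM NaCl, 5 mM MgCl2, pH 7.4. Full-length His-Tev-tagged human TREX1, 4 pM, sits with compound 4 hours at 25° C before substrate; reaction 18 hours, stopped with EDTA.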

full length mouse TREX1 = molecular target: T2, full length mouse TREX1 (Mus musculus, UniProt Q91XB0); assay: mTREX1 Biochemical Assay (fluorescence, dsDNA substrate degradation); settings: biochemical, read-out: mTREX1 IC50
T2 construct: N-terminally His-Tev tagged full length mouse TREX1; made in house; host or cells: E. coli
T2 sequence (Q91XB0 1-314): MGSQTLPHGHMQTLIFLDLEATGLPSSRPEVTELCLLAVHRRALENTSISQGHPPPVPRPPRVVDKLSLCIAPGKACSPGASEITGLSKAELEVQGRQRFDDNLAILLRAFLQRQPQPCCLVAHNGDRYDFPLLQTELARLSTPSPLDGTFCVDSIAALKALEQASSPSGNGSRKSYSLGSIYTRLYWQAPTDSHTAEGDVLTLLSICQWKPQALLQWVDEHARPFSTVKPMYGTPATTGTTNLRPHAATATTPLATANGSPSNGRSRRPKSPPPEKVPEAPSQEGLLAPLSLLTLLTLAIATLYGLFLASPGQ
How it was run: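 Reaction run 18 h at 25° C. with 60 nM TEX615/quencher-labelled dsDNA and 6 pM mouse TREX1 in Tris buffer (pH 7.4, 5 mM MgCl2, 1.0% DMSO), enzyme having sat 4 h with compound across 10 concentrations. EDTA quench; substrate degradation measured as fluorescence increase.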

[1] = molecular target: T3, human TREX2 (residues M44-A279) (Homo sapiens, UniProt Q9BQ50); assay: hTREX2 Biochemical Assay (fluorescence, dsDNA substrate degradation); settings: biochemical selectivity for hTREX1 vs hTREX2
T3 construct: human TREX2 (residues M44-A279, expressed in E. coli); made in house; host or cells: E. coli
T3 sequence (Q9BQ50 44-279 isoform Q9BQ50-1): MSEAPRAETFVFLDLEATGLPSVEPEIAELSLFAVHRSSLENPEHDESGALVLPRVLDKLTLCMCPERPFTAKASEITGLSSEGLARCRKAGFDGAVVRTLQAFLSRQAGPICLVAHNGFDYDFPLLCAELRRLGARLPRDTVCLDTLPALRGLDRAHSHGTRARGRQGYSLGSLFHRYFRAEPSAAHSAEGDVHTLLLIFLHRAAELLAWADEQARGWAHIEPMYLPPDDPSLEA
How it was run: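 Fluorogenic dsDNA degradation read at 615 nm (570 nm excitation) after EDTA quench. Final 60 nM substrate, 50 pM His-Tev-tagged enzyme, 5 mM MgCl2, pH 7.4, 1.0% DMSO; 4 h compound–enzyme preincubation then 18 h reaction, both 25 °C; 10-point titration.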

hTREX1 = molecular target: T4, hTREX1 (Homo sapiens, UniProt Q9NSU2); assay: hTREX1 HCT116 Cell Assay (HCT116 dual cells, Lucia luciferase reporter of Type I interferon induction); assay type: cell-based; settings: TREX1i 4 h before pBR322/BstNI transfection, read after 48 h
T4 construct: host or cells: HCT116 dual cells
T4 sequence (Q9NSU2 1-314): T1 sequence (Q9NSU2 1-314)
How it was run: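 Type I interferon induction read as secreted Lucia luciferase 48 h after transfecting pBR322/BstNI digest (1 ug/mL, 100 ng/well) into HCT116 dual reporter cells. Compound added 4 h before transfection at up to 0.1% DMSO; cells in DMEM/10% FBS/25 mM HEPES at 37 °C.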

SMILES	IC50 (full length human TREX1)	IC50 (full length mouse TREX1)	hTREX1 vs hTREX2 selectivity [1]	IC50 (hTREX1)
Cc1cc(C(c2cc(F)ccc2C#N)C(C)c2nc(C(=O)Nc3cnoc3)c(O)c(=O)n2C)nn1C (single isomer, unassigned) [Example 112 D2E1]	1 to 10 nM	> 10 nM	A (A = <25 fold selective for hTREX1)	> 100 nM
Cc1cc(C(c2cc(F)ccc2Cl)C(C)c2nc(C(=O)Nc3cnoc3)c(O)c(=O)n2C)n(C)n1 (single isomer, unassigned) [Example 113 D1E1]	> 10 nM	> 10 nM	C (C = >50 fold selective for hTREX1)	10 to 100 nM
Cc1cnc(C(c2cc(F)ccc2C#N)C(C)c2nc(C(=O)Nc3cnoc3)c(O)c(=O)n2C)cn1 (single isomer, unassigned) [Example 115 D2E2]	1 to 10 nM	> 10 nM	C (C = >50 fold selective for hTREX1)	> 100 nM
Cc1cnc(C(c2ccccc2Cl)C(C)c2nc(C(=O)Nc3cnoc3)c(O)c(=O)n2C)cn1 (single isomer, unassigned) [Example 116 D1E1]	> 10 nM	> 10 nM	A (A = <25 fold selective for hTREX1)	> 100 nM
Cc1cnc(C(c2ccccc2Cl)C(C)c2nc(C(=O)Nc3cnoc3)c(O)c(=O)n2C)cn1 (single isomer, unassigned) [Example 116 D1E2]	< 1 nM	1 to 10 nM	B (B = 25 to 50-fold selective for hTREX1)	10 to 100 nM
Cc1cnc(C(c2ccccc2Cl)C(C)c2nc(C(=O)Nc3cnoc3)c(O)c(=O)n2C)cn1 (single isomer, unassigned) [Example 116 D2E1]	1 to 10 nM	> 10 nM	A (A = <25 fold selective for hTREX1)	> 100 nM
Cc1cnc(C(c2cc(F)ccc2Cl)C(C)c2nc(C(=O)Nc3cnoc3)c(O)c(=O)n2C)cn1 (single isomer, unassigned) [Example 117 D1E2]	< 1 nM	1 to 10 nM	A (A = <25 fold selective for hTREX1)	< 10 nM
Cc1cnc(C(c2cc(F)ccc2Cl)C(C)c2nc(C(=O)Nc3cnoc3)c(O)c(=O)n2C)cn1 (single isomer, unassigned) [Example 117 D2E1]	1 to 10 nM	> 10 nM	A (A = <25 fold selective for hTREX1)	> 100 nM
CC(c1nc(C(=O)Nc2cnoc2)c(O)c(=O)n1C)C(c1cnc(C(F)(F)F)cn1)c1ccccc1C#N (single isomer, unassigned) [Example 118 D1E1]	1 to 10 nM	1 to 10 nM	B (B = 25 to 50-fold selective for hTREX1)	10 to 100 nM
CC(c1nc(C(=O)Nc2cnoc2)c(O)c(=O)n1C)C(c1cnc(C(F)(F)F)cn1)c1ccccc1C#N (single isomer, unassigned) [Example 118 D2E1]	1 to 10 nM	> 10 nM	B (B = 25 to 50-fold selective for hTREX1)	> 100 nM
Cc1cnc(C)c(C(c2cc(F)ccc2C#N)C(C)c2nc(C(=O)Nc3cnoc3)c(O)c(=O)n2C)n1 (single isomer, unassigned) [Example 119 D1E2]	> 10 nM	> 10 nM	B (B = 25 to 50-fold selective for hTREX1)	> 100 nM
Cc1cnc(C)c(C(c2cc(F)ccc2C#N)C(C)c2nc(C(=O)Nc3cnoc3)c(O)c(=O)n2C)n1 (single isomer, unassigned) [Example 119 D2E1]	1 to 10 nM	> 10 nM	C (C = >50 fold selective for hTREX1)	> 100 nM
Cc1cnc(C)c(C(c2cc(F)ccc2C#N)C(C)c2nc(C(=O)Nc3cnoc3)c(O)c(=O)n2C)n1 (single isomer, unassigned) [Example 119 D2E2]	> 10 nM	> 10 nM	A (A = <25 fold selective for hTREX1)	> 100 nM
